# Values of other authors, collected in patent US20160051485A1, “Biodegradable Bionanoparticles for Releasing the GSE24-2 Peptide, Method for the Production Thereof, and Use of Same” (CONSEJO SUPERIOR DE INVESTIGACIONES (CSIC), priority 2013, published 2016).
# Test system: F9A353V cells
# Conditions: transfection of the peptide using a lipid compound; previous experiments
substance,measurement,value
"GSE24.2: fragment of 55 amino acids of the internal domain of dyskerin (TRUB domains), activating telomerase (GFINLDKPSNPSSHEVVAWIRRILRVEKTGHSGTLDPKVTGCLIVCIERATRLVK; listed as Homo sapiens)",Signal of the histone H2AX,reduces the signal of the histone H2AX
